From article PMC4506051, “Pharmacokinetic Profiles of Active Ingredients and Its Metabolites Derived from Rikkunshito, a Ghrelin Enhancer, in Healthy Japanese Volunteers: A Cross-Over, Randomized Study” (PLoS ONE, 2015)

Tests used:
[1] = Exploratory trial: plasma concentration of rikkunshito ingredients after single oral rikkunshito 7.5 g; assay type: in vivo
Method: A random sequence was generated using a computer. The safety endpoint was evaluated in all volunteers.
(§1) In the first exploratory trial, 20-mL blood samples were collected from the cutaneous vein in the subjects’ forearm via a blood sampling tube that contained heparin at 0 (preadministration), 0.5, 1, 2, 4, and 8 h after a single oral administration of rikkunshito (Lot E24652). The dose of rikkunshito used in this trial was 7.5 g/day, which is the clinical daily dose, to widely explore rikkunshito-derived ingredients that enter the blood. Along with plasma, urine samples were collected at three points: between dinner and bedtime (preadministration), between 0 and 4 h after administration, and between 4 and 8 h after administration. The blood was immediately centrifuged at 1700 ×g for 10 min to obtain plasma. Plasma and urine fractions were stored at −80°C or lower until analysis.
(§2) For quantification of synephrine, 5 µL of standard solution or methanol was added to 100 µL plasma or urine samples followed by mixing. Ten microliters of erythromycin [internal standard (IS)] solution was added to the solutions followed by mixing and centrifugation (20,400 ×g, 5 min, 4°C). The supernatants were loaded onto an Ostro 96-well plate (Waters) and centrifuged (1500 ×g, 3 min, 4°C) followed by injection into the LC–MS/MS.
(§3) For quantification of 30 ingredients other than atractylodin and synephrine, 25 µL of standard solution or methanol was added to 500 µL plasma or urine samples followed by mixing. Atractylenolide III or digoxin (IS) solution (50 μL) was added to the solutions followed by mixing. For urine, 400 µL of blank plasma was added to the solutions. Ammonium acetate solution (100 mM, 100 or 400 µL) was added to the solutions followed by mixing. For enzymatic treatment, plasma and urine samples were incubated with β-glucuronidase (100 units in 100 mM ammonium acetate) for 2 h at 37°C. A solid-phase cartridge (OASIS HLB, 30 mg/1cc, Waters) was conditioned with methanol and 10 mM ammonium acetate solution, and the samples were loaded onto the cartridge. The cartridge was washed water : methanol (9:1, v/v), and 1.5 mL of methanol and 30 µL of propylene glycol were added to the cartridge to elute the analytes. The mixtures were dried at 25°C under a stream of nitrogen gas. Furthermore, 100 μL of 10 mM ammonium acetate : methanol (8:2, v/v) was added to the dried samples followed by mixing and sonication. The solutions were filtered (0.22 µm) and followed by injection into the LC–MS/MS system. […] Those analytical conditions are summarized in S2 Table and S3 Table.

[2] = Stability of ingredients in gastric pH solution (pH 1.2, 37°C); assay type: physicochemical
Method: Rikkunshito gradually dissolved in acidic solution (pH 1.2) at 37°C, and the concentration of atractylodin after adding 0.25, 0.5, 1, and 2 h was measured by gas chromatography–mass spectrometry.

[3] = Exploratory trial: amount of rikkunshito ingredients in urine; assay type: in vivo, human; conditions: mean ± S.D., n = 4; for Amount in urine, 0–4 h: 0–4 h after single oral rikkunshito 7.5 g; for Amount in urine, 4–8 h: 4–8 h after single oral rikkunshito 7.5 g; for Amount in urine, Pre: preadministration (between dinner and bedtime)
Method: as §1, §2, §3

[4] = rikkunshito in acidic solution (pH 1.2) at 37°C, 0.5 h
[5] = rikkunshito in acidic solution (pH 1.2) at 37°C, 1 h
[6] = rikkunshito in acidic solution (pH 1.2) at 37°C, 2 h

Row | SMILES | Plasma concentration, 0 h ([1]; in vivo, po) | Plasma concentration, 1 h ([1]; in vivo, po) | Plasma concentration, 2 h ([1]; in vivo, po) | Plasma concentration, 8 h ([1]; in vivo, po) | Stability in gastric pH solution, Quantitative value ([2]; 0.5 h, pH 1.2) | Stability in gastric pH solution, Quantitative value ([2]; 1 h, pH 1.2) | Stability in gastric pH solution, Quantitative value ([2]; 2 h, pH 1.2) | Amount in urine, 0–4 h [3] | Amount in urine, 4–8 h [3] | Amount in urine, Pre [3] | Plasma concentration, 0.5 h ([1]; in vivo, po) | Stability in gastric pH solution, Quantitative value [2, 4] | Stability in gastric pH solution, Quantitative value [2, 5] | Stability in gastric pH solution, Quantitative value [2, 6] | other results
1 | CC(C)=CCC[C@](C)(O[C@@H]1O[C@H](CO[C@@H]2O[C@H](CO)[C@@H](O)[C@H](O)[C@H]2O)[C@@H](O)[C@H](O)[C@H]1O)[C@H]1CC[C@]2(C)[C@@H]1[C@H](O)C[C@@H]1[C@@]3(C)CC[C@H](O[C@@H]4O[C@H](CO)[C@@H](O)[C@H](O)[C@H]4O[C@@H]4O[C@H](CO)[C@@H](O)[C@H](O)[C@H]4O)C(C)(C)[C@@H]3CC[C@]12C [Ginsenoside Rb1] | BQL | BQL | BQL | BQL | 297 ng/mL | 202 ng/mL | 86.4 ng/mL | – | – | – | BQL | – | – | – | concentration at 4 h ([1]; human, in vivo, po): 0.175 ± 0.118 ng/mL
2 | CC(C)=CCC[C@](C)(O[C@@H]1O[C@H](CO[C@@H]2OC[C@H](O)[C@H](O)[C@H]2O)[C@@H](O)[C@H](O)[C@H]1O)[C@H]1CC[C@]2(C)[C@@H]1[C@H](O)C[C@@H]1[C@@]3(C)CC[C@H](O[C@@H]4O[C@H](CO)[C@@H](O)[C@H](O)[C@H]4O[C@@H]4O[C@H](CO)[C@@H](O)[C@H](O)[C@H]4O)C(C)(C)[C@@H]3CC[C@]12C [Ginsenoside Rb2] | – | – | – | – | 275 ng/mL | 168 ng/mL | 77.3 ng/mL | 202 ± 202 ng | 84.6 ± 90.1 ng | BQL | – | – | – | – | –
3 | CC(C)=CCC[C@](C)(O[C@@H]1O[C@H](CO[C@@H]2O[C@@H](CO)[C@H](O)[C@H]2O)[C@@H](O)[C@H](O)[C@H]1O)[C@H]1CC[C@]2(C)[C@@H]1[C@H](O)C[C@@H]1[C@@]3(C)CC[C@H](O[C@@H]4O[C@H](CO)[C@@H](O)[C@H](O)[C@H]4O[C@@H]4O[C@H](CO)[C@@H](O)[C@H](O)[C@H]4O)C(C)(C)[C@@H]3CC[C@]12C [Ginsenoside Rc] | BQL | BQL | BQL | BQL | 188 ng/mL | 115 ng/mL | 39.3 ng/mL | – | – | – | BQL | – | – | – | concentration at 4 h ([1]; human, in vivo, po): 0.0303 ± 0.0605 ng/mL
4 | CC(C)=CCC[C@](C)(O)[C@H]1CC[C@]2(C)[C@@H]1[C@H](O)C[C@@H]1[C@@]3(C)CC[C@H](O)C(C)(C)[C@@H]3[C@@H](O[C@@H]3O[C@H](CO)[C@@H](O)[C@H](O)[C@H]3O[C@@H]3O[C@H](CO)[C@@H](O)[C@H](O)[C@H]3O)C[C@]12C [Ginsenoside Rf] | – | – | – | – | – | – | – | 48.2 ± 64.4 ng | 23.0 ± 20.4 ng | BQL | – | 190 ng/mL | 159 ng/mL | 113 ng/mL | –
5 | CC1(C)[C@@H](O[C@@H]2O[C@H](C(=O)O)[C@@H](O)[C@H](O)[C@H]2O)CC[C@]2(C)[C@H]3C(=O)C=C4[C@@H]5C[C@@](C)(C(=O)O)CC[C@]5(C)CC[C@@]4(C)[C@]3(C)CC[C@@H]12 [Glycyrrhetic acid 3-O-glucuronide, Glycyrrhetinic acid 3-O-glucuronide] | BQL | 0.0448 ± 0.0895 ng/mL | 0.244 ± 0.0735 ng/mL | 0.247 ± 0.0622 ng/mL | – | – | – | BQL | 6.94 ± 13.9 ng | BQL | BQL | – | – | – | Plasma concentration, 4 h ([1]; in vivo, po): 0.327 ± 0.0656 ng/mL
6 | CC1(C)CC[C@]2(C(=O)O)CC[C@]3(C)C(=CC[C@@H]4[C@@]5(C)CC[C@H](O)C(C)(C)[C@@H]5CC[C@]43C)[C@@H]2C1 [Oleanolic acid] | BQL | BQL | – | – | – | – | – | – | – | – | BQL | 3.61 ng/mL | 3.54 ng/mL | 3.28 ng/mL | concentration at 2 h ([1]; human, in vivo, po): 0.198 ± 0.395 ng/mL; concentration at 4 h ([1]; human, in vivo, po): 0.903 ± 0.983 ng/mL; concentration at 8 h ([1]; human, in vivo, po): 1.12 ± 0.89 ng/mL; Cmax ([1]; human, in vivo, rikkunshito 7.5 g, four subjects, highest mean concentration over 0–8 h, read-out: C max in plasma (exploratory trial)): 1.12 ng/mL
7 | CCCCCCCCC[C@H](O)CC(=O)CCc1ccc(O)c(OC)c1 [[10]-gingerol, [10]-Gingerol] | – | – | – | – | – | – | – | – | – | – | – | 8.07 ng/mL | 7.53 ng/mL | 7.62 ng/mL | –
8 | CC(C)=CCC[C@](C)(O)[C@H]1CC[C@]2(C)[C@@H]1[C@H](O)C[C@@H]1[C@@]3(C)CC[C@H](O)C(C)(C)[C@@H]3[C@@H](O[C@@H]3O[C@H](CO)[C@@H](O)[C@H](O)[C@H]3O[C@@H]3O[C@@H](C)[C@H](O)[C@@H](O)[C@H]3O)C[C@]12C [ginsenoside Rg2, Ginsenoside Rg2] | – | – | – | – | – | – | – | – | – | – | – | 121 ng/mL | 157 ng/mL | 126 ng/mL | –

Second part, led by results:

Row | Plasma concentration, 0 h ([1]; in vivo, po) | Plasma concentration, 1 h ([1]; in vivo, po) | Plasma concentration, 2 h ([1]; in vivo, po) | Plasma concentration, 8 h ([1]; in vivo, po) | Stability in gastric pH solution, Quantitative value ([2]; 0.5 h, pH 1.2) | Stability in gastric pH solution, Quantitative value ([2]; 1 h, pH 1.2) | Stability in gastric pH solution, Quantitative value ([2]; 2 h, pH 1.2) | Amount in urine, 0–4 h [3] | Amount in urine, 4–8 h [3] | Amount in urine, Pre [3] | SMILES | Plasma concentration, 0.5 h ([1]; in vivo, po) | Stability in gastric pH solution, Quantitative value [2, 4] | Stability in gastric pH solution, Quantitative value [2, 5] | Stability in gastric pH solution, Quantitative value [2, 6] | other results
9 | – | – | – | – | 98.5 ng/mL | 68.1 ng/mL | 20.3 ng/mL | – | – | – | CC(C)=CCC[C@](C)(O[C@@H]1O[C@H](CO)[C@@H](O)[C@H](O)[C@H]1O)[C@H]1CC[C@]2(C)[C@@H]1[C@H](O)C[C@@H]1[C@@]3(C)CC[C@H](O[C@@H]4O[C@H](CO)[C@@H](O)[C@H](O)[C@H]4O[C@@H]4O[C@H](CO)[C@@H](O)[C@H](O)[C@H]4O)C(C)(C)[C@@H]3CC[C@]12C [Ginsenoside Rd] | – | – | – | – | Plasma concentration, 0 h ([1]; 0 h (preadministration), single oral rikkunshito 7.5 g, mean ± S.D., n = 4): BQL; Plasma concentration, 0.5 h ([1]; 0.5 h after single oral rikkunshito 7.5 g, mean ± S.D., n = 4): BQL; Plasma concentration, 2 h ([1]; 2 h after single oral rikkunshito 7.5 g, mean ± S.D., n = 4): BQL; Plasma concentration, 4 h ([1]; 4 h after single oral rikkunshito 7.5 g, mean ± S.D., n = 4): BQL; Plasma concentration, 8 h ([1]; 8 h after single oral rikkunshito 7.5 g, mean ± S.D., n = 4): BQL; concentration at 1 h ([1]; human, in vivo, 1 h after single oral rikkunshito 7.5 g, mean ± S.D., n = 4): 0.0308 ± 0.0615 ng/mL
10 | – | – | – | – | 96.7 ng/mL | 58.4 ng/mL | 23.7 ng/mL | BQL | 30.6 ± 61.2 ng | BQL | CC(C)=CCC[C@](C)(O[C@@H]1O[C@H](CO)[C@@H](O)[C@H](O)[C@H]1O)[C@H]1CC[C@]2(C)[C@@H]1[C@H](O)C[C@@H]1[C@@]3(C)CC[C@H](O)C(C)(C)[C@@H]3[C@@H](O[C@@H]3O[C@H](CO)[C@@H](O)[C@H](O)[C@H]3O[C@@H]3O[C@@H](C)[C@H](O)[C@@H](O)[C@H]3O)C[C@]12C [Ginsenoside Re] | – | – | – | – | –
11 | – | – | – | – | 174 ng/mL | 118 ng/mL | 41.6 ng/mL | 620 ± 331 ng | 638 ± 319 ng | BQL | CC(C)=CCC[C@](C)(O[C@@H]1O[C@H](CO)[C@@H](O)[C@H](O)[C@H]1O)[C@H]1CC[C@]2(C)[C@@H]1[C@H](O)C[C@@H]1[C@@]3(C)CC[C@H](O)C(C)(C)[C@@H]3[C@@H](O[C@@H]3O[C@H](CO)[C@@H](O)[C@H](O)[C@H]3O)C[C@]12C [Ginsenoside Rg1] | – | – | – | – | –
12 | BQL | BQL | BQL | BQL | 5.50 ng/mL | 6.62 ng/mL | 5.95 ng/mL | – | – | – | COc1ccc(-c2cc(=O)c3c(OC)c(OC)c(OC)c(OC)c3o2)cc1 [Tangeretin] | – | – | – | – | concentration at 0.5 h ([1]; human, in vivo, po): 0.00573 ± 0.0115 ng/mL; Plasma concentration, 4 h ([1]; in vivo, po): BQL
